Measurements taken from patent US6835754B2, “Use of aryl nitrone compounds in methods for treating neuropathic pain” (Renovis, Inc., priority 2001, dated 2004).
“Also recorded” adds a separate entry of the source.

Legend:
[1] = tested on: male Swiss Webster mice, phenylquinone-induced writhing; assay: Phenylquinone (PQ) writhing assay, % inhibition (Swiss Webster mice); format: in vivo; settings: for % Inhibition of Writhing Response / inhibition at 30 mg/kg: 30 mg/kg orally in 1% methyl cellulose, 1 hour before PQ 2 mg/kg ip; for inhibition at 30 mg/kg: read-out: % Inhibition of Writhing Response
Method: Test compounds were prepared as a suspension in 1% methyl cellulose and dosed orally at a dose of 30 mg/kg to male Swiss Webster mice weighing between 15 and 25 g with 10 mice per group. Test compounds was given 1 hour before the injection of phenylquinone. Phenylquinone (Sigma) was injected intraperitoneally at a dose of 2 mg/kg. After a 5 minute acclimation period, the number of writhes was counted for a 5 minute observation period for each mouse. The total number of writhes for each test compound was compared with a vehicle group. Results were expressed as % inhibition compared to the vehicle treated group means (Table VII).
In related experiment, a dose response relationship was established for the compound of Example 1 using the same experimental protocl as above. […] This is shown graphically in FIG. 2.

Rats (Sprague-Dawley) = assay: Rat hot-plate assay (55° C.) for general analgesia; format: in vivo
Method: The purpose of the experiment was to determine if the compound of Example 16 has significant general analgesic activity as opposed to the desired activity against neuropathic pain. Test compound, 1% methylcellulose as a vehicle and morphine sulfate as a positive standard were tested for analgesic activity using a rat hot-plate assay (55° C.) of Eddy and Leimbach (J. Pharmacol. Ep. Ther 107; 385-393 (1953)) to evaluate nociceptive responses.
Rats (Sprague-Dawley, 217-227 g.) were used with 10 animals per group. Two pre-dose trials to nociceptive responses were determined before administration of compounds. Sixty minutes prior to testing, rats were dosed with either test compound (100 mg/kg, p.), as a suspension in 1% methylcellulose, or 1% methylcellulose as a vehicle ([…], p.). thirty minutes prior to testing, a third group was dosed with morphine sulfate (4.0 mg/kg, 2.0 ml/kg, sc) to test for nociceptive responses using a hot plate. Latency to rear paw licking response or jump response (1) was recorded using an electronic timer. The cut-off time for either response was 30 seconds. Statistical significance was assessed for paired groups using a Turkey test and between non-paired groups using Kruskal-Wallis test. A probability value of <0.05 was identified as statistically significant.

[2] = tested on: Chronic constriction injury (CCI) rats; assay: Bennett chronic constriction injury (CCI) mononeuropathy, cold allodynia assay; format: in vivo, Sparague Dawley rats
Method: The peripheral mononeuropathy was induced by loose ligation of the sciatic nerve in anaesthetized rats. Ten days later, the nociceptive threshold was evaluated. The test compound is administered orally 1 hour prior to pain measurement. For comparison, a predose threshold was determined and a control experiment using 1% methyl cellulose was run. […] Animals were again tested 1-2 hrs post-dose. Predose and postdose average scores are determined.
In a related experiment a dose-response relationship for the compound of Example 20 was determined using the same experimental protocol. […] Animals were again tested 1 hr post-dose.

[3] = tested on: ICR derived male mice, phenylquinone-induced writhing; assay: Phenylquinone (PQ) Writhing assay, number of writhes (MDS Panlabs, ICR mice); format: in vivo; settings: for analgesia relative to vehicle control group (PQ writhing): 100, 30 and 10 mg/kg orally, P<0.01 for all 3 doses, Dunnett's test; for # Writhes (X + SEM): per os, 60 min before PQ 2 mg/kg ip, vehicle 20.8 ± 0.7, **P<0.01
Method: The compounds of Example 20 and Example 16 administered orally at doses of 10, 30 and 100 mg/kg. Vehicle of 2% Tween 80 in distilled water was used.
In this study, ICR derived male mice provided by animal breeding center of MDS Panlabs Taiwan, Ltd. were used. Space allocation for 10 animals was 45×23×15 cm. Mice were housed in APEC^R (Allentown Gaging, Allentown, N.J. 08501, U.S.A.) cages in a positive pressure isolation (NuAire^R, Mode: Nu-605, airflow velocity 50±5 ft/min, HEPA Filter) and maintained in a controlled temperature (22°-24° C.) and humidity (60%-80%) environment with 12 hour light dark cycles for at least one week in MDS Panlabs Taiwan laboratory prior to be used. Free access to standard lab chow for mice (Fwusow Industry Co., Limited, Taiwan) and tap water was granted. All aspects of this work including housing, experimentation and disposal of animals were performed in general accordance with the International Guiding Principles for Biomedical Research Involving Animals (CIOMS Publication No. ISBN 92 90360194, 1985).
The method of Siegmund, E. et al., Proc. Soc. Exp. Biol. Med. 95: 729-731, 1957, “A method for evaluating both non-narcotic and narcotic analgesics” was used. One hour after vehicle or compound administration, the number of writhes was recorded for each mouse in groups of 10 animals during a 5 to 10 minute period following 2 mg/kg. 1.p. of phenylquinone.
Groups of 10 male ICR mice weighing 22±2 gm were employed. Three doses (10, 30 and 100 mg/kg) of test substances suspended in a vehicle of 2% Tween 80 were administered per os. The control group received vehicle alone. […] The mean±SEM value of writhing number for each treatment group was then calculated and Dunnett's test was applied for comparison between vehicle and treated groups. Differences were considered significant when P<0.01.

[4] = tested on: Rats, Type II collagen assay; assay: Hargreaves test (withdrawal latency to heat) in Type II collagen assay; format: in vivo; settings: rats Day 20 of Type II collagen assay
Method: The compound of Example 20 was further tested in a Hargreaves test, another accepted model for neuropathic pain.
Rats were tested on Day 20 in Type II collagen assay. […] Two hours after the 1st dose of drug on Day 20, animals were placed on a Hargreaves apparatus glass table. A high intensity light was placed under the one hind paw and illuminated, thus creating heat. At the same time, a clock was started. The light turned off, and the clock simultaneously stopped when the animal removed the paw. The time the rat is able to withstand the hear is considered withdrawal latency.

For “a-(4-hydroxy-3,5-dimethylphenyl)-N-tert-butylnitrone [Example 24]”, the “% Inhibition of Writhing Response” value [1] was 23%.
In the case of `CCOC(=O)COc1c(C(C)(C)C)cc(C=[N+]([O-])C(C)(C)C)cc1C(C)(C)C` [Example 34, α-(4-carbethoxymethoxy-3,5-di-tert-butylphenyl)-N-tert-butylnitrone], the melting point is reported as 188 °C.
For `CC(C)[N+]([O-])=Cc1cc(C(C)(C)C)c(O)c(C(C)(C)C)c1` [Example 27, a-(4-hydroxy-3,5-di-tert-butylphenyl)-N-(1-methylethyl)nitrone], the “% Inhibition of Writhing Response” value [1] was 30%.
`CC(C)(C)CC(C)(C)[N+]([O-])=Cc1cc(C(C)(C)C)c(O)c(C(C)(C)C)c1` [Example 21, α-(4-hydroxy-3,5-di-tert-butylphenyl)-N-tert-octylnitrone] gave an inhibition at 30 mg/kg ([1]; Mus musculus) of 30% and a melting point of 113 to 115 °C.
Work on `COc1c(C(C)(C)C)cc(/C=[N+](\[O-])C(C)(C)C)cc1C(C)(C)C` [Example 32, α-(4-methoxy-3,5-di-tert-butylphenyl)-N-tert-butylnitrone] yielded an inhibition at 30 mg/kg ([1]; Mus musculus) of 38% and a melting point of 223.1 °C.
For “a-(4-hydroxy-3,5-dimethoxyphenyl)-N-tert-butylnitrone [Example 22]”, the “% Inhibition of Writhing Response” value [1] was 32%.
Compound `CCC(=O)Oc1c(C(C)(C)C)cc(/C=[N+](\[O-])C(C)(C)C)cc1C(C)(C)C` [Example 8, α-(4-propionyloxy-3,5-di-tert-butylphenyl)-N-tert-butylnitrone] has a melting point of 202 to 222 °C.
In the case of `CCCCCC[N+]([O-])=Cc1cc(C)c(O)c(C)c1` [Example 23, a-(4-hydroxy-3,5-dimethylphenyl)-N-hexylnitrone], the “% Inhibition of Writhing Response” value [1] is reported as 47% and the “activity in PQ writhing model” value ([1]; mice, oral) is reported as “Significant activity”.
In the case of `COCOc1c(C(C)(C)C)cc(C=[N+]([O-])CC2CCCCC2)cc1C(C)(C)C` [Example 29, α-(4-methoxymethoxy-3,5-di-tert-butylphenyl)-N-cyclohexylmethylnitrone], the melting point is reported as 143.1 °C.
For `COCOc1c(C(C)(C)C)cc(/C=[N+](\[O-])C(C)(C)C)cc1C(C)(C)C` [Example 16, α-(4-Methoxymethoxy-3,5-di-tert-butylphenyl)-N-tert-butylnitrone], the “effect on hot-plate latency compared with pre-dose” value (Rats (Sprague-Dawley); 100 mg/kg orally, sixty minutes prior to testing) was “did not significantly affect”, the “hot-plate latency, post-dose (mean±SEM)” value (Rats (Sprague-Dawley); 100 mg/kg orally, sixty minutes prior to testing, pre-dose 7.9±1.0 seconds) was 9.7 ± 1.0 s and the “effectiveness in cold stimulus latency, Bennett CCI model” value ([2]; 100 mg/kg, p.o., tested 1-2 hrs post-dose, FIG. 3) was “effective”. The “analgesia relative to vehicle control group (PQ writhing)” value [3] was “significant”, the “# Writhes (X + SEM)” value ([3]; Dose 30 mg/kg) was 3.9 ± 1.3** and the “# Writhes (X + SEM)” value ([3]; Dose 10 ml/kg as printed) was 14.9 ± 1.2**. The “# Writhes (X + SEM)” value ([3]; Dose 100 ml/kg as printed) was 1.3 ± 0.6**.
For “α-(4-n-Butanoyl-3,5-di-tert-butylphenyl)-N-tert-butylnitrone [Example 3]”, the “% Inhibition of Writhing Response” value [1] was 62%.
For `COCOc1c(C(C)(C)C)cc(/C=[N+](\[O-])Cc2ccccc2)cc1C(C)(C)C` [Example 31, α-(4-methoxymethoxy-3,5-di-tert-butylphenyl)-N-benzylnitrone], the melting point was 134.2 °C.
With `CC(=O)Oc1c(C(C)(C)C)cc(/C=[N+](\[O-])C(C)(C)C)cc1C(C)(C)C` [Example 1, α-(4-Acetoxy-3,5-di-tert-butylphenyl)-N-tert-butylnitrone] the inhibition at 30 mg/kg ([1]; Mus musculus) was 65% and the ED50 ([1]; Mus musculus, dose response, oral, mice) was 2.7 mg/kg.
In the case of `CC(C)(C)c1cc(C=[N+]([O-])C(C)(C)CO)cc(C(C)(C)C)c1O` [Example 25, a-(4-hydroxy-3,5-di-tert-butylphenyl)-N-(1,1-dimethyl-2-hydroxyethyl)nitrone], the “% Inhibition of Writhing Response” value [1] is reported as 30% and the “activity in PQ writhing model” value ([1]; mice, oral) is reported as “Significant activity”.
With “α-(4-Isobutanoyl-3,5-di-tert-butylphenyl)-N-tert-butylnitrone [Example 2]” the “% Inhibition of Writhing Response” value [1] was 29%.
In the case of `CCC(C)(C)[N+]([O-])=Cc1cc(C(C)(C)C)c(O)c(C(C)(C)C)c1` [Example 26, a-(4-hydroxy-3,5-di-tert-butylphenyl)-N-(1,1-dimethylpropyl)nitrone], the “% Inhibition of Writhing Response” value [1] is reported as 48%.
In the case of `CC(C)(C)c1cc(C=[N+]([O-])Cc2ccccc2)cc(C(C)(C)C)c1O` [Example 28, a-(4-hydroxy-3,5-di-tert-butylphenyl)-N-benzylnitrone], the “% Inhibition of Writhing Response” value [1] is reported as 45%.
For `CN1CC[C@]23c4c5ccc(O)c4O[C@H]2[C@@H](O)C=C[C@H]3[C@H]1C5.O=S(=O)(O)O` [morphine sulfate, reference compound], the “effect on hot-plate mean latency compared with pre-dose” value (Rats (Sprague-Dawley); 4.0 mg/kg sc, thirty minutes prior to testing) was “significantly increased” and the “hot-plate mean latency to jump/hind paw licking response, post-dose (mean±SEM)” value (Rats (Sprague-Dawley); 4.0 mg/kg sc, thirty minutes prior to testing, pre-dose 9.9±1.0 seconds, P<0.001) was 24.3 ± 2.3 s.
Compound `CC(=O)Oc1c(C(C)(C)C)cc(/C=[N+](/C)[O-])cc1C(C)(C)C` [Example 9, α-(4-acetoxy-3,5-di-tert-butylphenyl)-N-methylnitrone] has a melting point of 136 to 143 °C.
For `CC(C)(C)c1cc(C=[N+]([O-])C(C)(C)C)cc(C(C)(C)C)c1O` [Example 20, α-(4-hydroxy-3,5-di-tert-butylphenyl)-N-tert-butylnitrone], the ED50 ([4]; Rattus norvegicus, po, two hours after dose) was 6.25 mg/kg, the “activity in Hargreaves test (withdrawal latency)” value ([4]; doses of 10-100 mg/kg, FIG. 5) was “Significant activity; also recorded: does exhibit activity” and the “postdose latency score over vehicle, cold allodynia” value ([2]; 30 mg/kg p.o., 1 hr post-dose, p<0.05 vs. vehicle postdose) was “significant postdose latency score over vehicle”. For the same compound, the “postdose latency score over vehicle, cold allodynia” value ([2]; 100 mg/kg p.o., 1 hr post-dose, p<0.01 vs. vehicle postdose) was “significant postdose latency score over vehicle”, the “latency in the cold allodynia assay” value ([2]; various doses (10, 30, 100 mg/kg, p.o.), 1 hr post-dose, FIG. 4) was “increased latency” and the inhibition at 30 mg/kg ([1]; Mus musculus) was 62%. The “analgesia relative to vehicle control group (PQ writhing)” value [3] was “significant”, the “# Writhes (X + SEM)” value ([3]; Dose 30 mg/kg) was 0.9 ± 0.5** and the “# Writhes (X + SEM)” value ([3]; Dose 10 ml/kg as printed) was 3.1 ± 1.4**. The “# Writhes (X + SEM)” value ([3]; Dose 100 ml/kg as printed) was 0.3 ± 0.2**.
For `CCOc1c(C(C)(C)C)cc(/C=[N+](\[O-])C(C)(C)C)cc1C(C)(C)C` [Example 33, α-(4-ethoxy-3,5-di-tert-butylphenyl)-N-tert-butylnitrone], the inhibition at 30 mg/kg ([1]; Mus musculus) was 4% and the melting point was 212.1 °C.
